The values that follow are results of earlier work, collected in patent publication US8084059B2, “Antidepressant dosage form” (ALZA Corporation, priority 1993, dated 2011).

Data set [1] relates to effects of levodopa. Particulars: in vivo.
Data set [2] has as its system cyclicadenosine monophosphate subsensitivity. To be noted: after both acute and chronic administration.
Data set [3] has as its system neuronal uptake of morepinephrine. To be noted: in vitro.
The test system of data set [4] is reserpine-induced hypothermia. To be noted: in vivo.
The conditions of data set [5]: humans.
The test system of data set [6] is neuronal uptake of dopamine. To be noted: in vitro.
For data set [7], the system named is histamine-induced corticotropin release. To be noted: in vivo.
The subject of data set [8] is monoamine oxidase. To be noted: in vitro.

For `COc1ccc(C(CN(C)C)C2(O)CCCCC2)cc1` (centres unmarked) [1-[2-(dimethylamino)-1-(4-methoxyphenyl)ethyl]cyclohexanol], the “effect on the effects of levodopa” value in data set [1] is “potentiates”. The cyclicadenosine monophosphate subsensitivity entry in data set [2] is “induces”. Moreover, in data set [3], the “neuronal uptake of morepinephrine” value is reported as “prevents”. For the same compound, in data set [4], the “effect on reserpine-induced hypothermia” value is listed as “antagonizes”. In addition, the antidepressant activity entry in data set [5] is reported as “excellent”. Besides, in data set [6], the “neuronal uptake of dopamine” value was “prevents”. Moreover, in data set [7], the “effect on histamine-induced corticotropin release” value was “reduces”. For the same compound, the “inhibition of monoamine oxidase” value in data set [8] is on record as “does not inhibit”.
